From article PMC9146423, “Discovery of Nitro-azolo[1,5-a]pyrimidines with Anti-Inflammatory and Protective Activity against LPS-Induced Acute Lung Injury” (Pharmaceuticals, 2022)
Counter-ions that a name gives are not always drawn.

How the values were obtained:
[1] = test system: LPS-stimulated peritoneal macrophages of C57bl/6j mice; test: Inhibition of LPS-induced NO synthesis (nitrite accumulation, Griess reagent) in peritoneal macrophages; type: cell-based, mouse; conditions: 100 μM; for inhibition at 100 µM: Mus musculus, Peritoneal macrophage, 22 h, read-out: Inhibition of NO Synthesis vs. LPS Control; for inhibition at 100 µM / Inhibition of NO Synthesis vs. LPS Control: m ± SD
Experimental: (§1) Peritoneal macrophages (PM) were isolated from the peritoneal exudate of 30 male C57bl/6j mice. To accumulate PM, 1 mL of 3% peptone solution was injected intraperitoneally. After 3 days, the mice were euthanized by cervical dislocation. Cells of peritoneal exudate were obtained by aseptic washing of the abdominal cavity with 5 mL of sterile Hanks’s solution (+4–6 °C) without calcium and magnesium ions. The total number and viability of cells were assessed in a Goryaev counting chamber (Russia) with a 0.4% trypan blue staining (Sigma-Aldrich, St. Louis, MO, USA). The cell concentration was adjusted to 1.0 × 10^6 cells/mL in DMEM (Gibco) supplemented with 2 mM L-glutamine (Gibco, Waltham, MA, USA), 10% heat-inactivated fetal bovine serum (BioClot, Bavaria, Germany), 100 U/mL penicillin, and […] streptomycin (Gibco) and plated 200 μL/well in 96-well transparent plates (SPL Life Sciences Co., Ltd., Pocheon-si, Korea). After 2 h at 37 °C in a humidified atmosphere with 5% CO2, the wells were washed to remove non-adherent cells. After 24 h of incubation, 20 μL of the supernatants were substituted with 20 μL of solutions of test compounds, followed by E. coli O127:B8 LPS (100 ng/mL final concentration) after 30 min. The experiments were run in 3 independent replicates.
The accumulation of the nitrite anion (a stable end product of NO decomposition produced by iNOS) in supernatants was determined using a standard Griess reagent. Briefly, 50 μL of supernatants were collected 22 h after incubation of PM, and the test and control compounds were mixed with 50 μL of 1% […] in 2.5% H3PO4 and 50 μL of 0.1% N-(1-naphthyl) ethylenediamine in 2.5% H3PO4. After incubation at 23 °C for 10 min in an orbital shaker, the optical density was determined at a wavelength of 550 nm with a microplate reader Infinite M200 PRO (Tecan, Grödig, Austria).

[2] = test system: LPS-stimulated peritoneal macrophages of C57bl/6j mice; test: Cell viability of LPS-stimulated macrophages, MTT test; type: cell-based; conditions: 100 μM
Experimental: as §1
The activity of lactate dehydrogenase (LDH) in a cell culture medium served as a marker of membrane permeability and cell death. Aliquotes of supernatants were taken after 24 h of inoculation with test compounds, mixed with 250 μL of […] NADH solution in 54 mM phosphate-buffered saline (pH 7.5). Then, 25 μL of a 6.48 mM pyruvate solution was added to the mixture. The optical density was followed at a wavelength of 340 nm for 20 min. The MTT-test was performed 24 h after incubations of cells with tested compounds. Briefly, 20 μL of MTT solution was added to each well, incubated at 37 °C in a humidified atmosphere containing 5% CO2 for 4 h. The culture medium was removed, the cells were lysed, and formazan crystals were dissolved in 150 μL DMSO. The plates were shaken at room temperature for 10 min, and the optical density was measured in a microplate reader Infinite M200 PRO (Tecan, Grödig, Austria) at a wavelength of 565 nm.

[3] = test system: peritoneal macrophages of C57bl/6j mice; test: Yeast phagocytosis assay and macrophage spreading; type: cell-based, mouse
Experimental: Next, we evaluated lead compound 9g for immunodepressant activity in parallel with the reference drug dexamethasone. Yeast phagocytosis was assessed by microscopic examination as the number of phagocytes per 100 macrophages and as the number of phagocytosed yeast cells in each phagocyte. Cell viability was assessed as lactate dehydrogenase activity in cell supernatants, which correlates with increased cell membrane permeability.
Peritoneal macrophages of C57bl/6j mice were cultured in a 24-well plate at a volume of 500 μL/well (1 × 10^5 cells/mL) for 24 h. Test compounds or DMSO were added to wells in triplicate followed by 50 μL of 1% yeast suspension, and the plates were incubated for 40 min. After 24 or 72 h, the medium was removed. The cells were fixed with May–Grunwald methanol dye and stained with Azur-Eosin in Romanovsky’s modification for 45 min at room temperature, washed, air-dried, and analyzed using a microscope Mikmed-6 (Russia), equipped with a digital camera. The study was performed in three technical replicates and two series; 100 macrophages were processed in each sample to count the captured yeast cells. Macrophage spreading was assessed as a number of pseudopodia.

C57BL/6J mice = test: LPS-induced acute lung injury in mice; type: in vivo, mouse
Experimental: The randomization of C57bl/6j mice into experimental and control groups was based on body weight and behavioral activity assessed in an open field test 24 h before the start of the experiment. The next day, mice were treated with vehicle or test compounds 1 h before intratracheal instillation of LPS solution in sterile saline.
The randomization of C57BL/6J mice was performed by body weight and motor activity in an open field test. Dexamethasone (5 mg/kg) and 9g (30 mg/kg) were administered intraperitoneally in 10 mL/kg sterile saline. The control animals received an equal volume of the vehicle. After 1 h, the mice were anesthetized with isoflurane inhalation until their breathing rate was decreased. The mice were suspended by the front incisors on an inclined surgical table, the tongue was pulled out with narrow curved tweezers, and 1 mg/mL of E. coli O127:B8 LPS (Sigma-Aldrich, St. Louis, MO, USA) in 1 mL/kg sterile saline was injected into the back of the oropharynx. Intact control animals received an equal volume of sterile saline similarly.
The animals were placed in the center of a round open field with an arena of 44 cm diameter and 32 cm wall height under 300 lux lighting. During 5 min of observation, horizontal motor activity, vertical motor activity, time spent in the central part, the number of exits to the central part, and exploratory activity parameters were recorded. Body temperature was determined rectally.
The mice were anesthetized with 500 mg/kg chloral hydrate (Sigma-Aldrich, St. Louis, MO, USA) intraperitoneally 24 h after LPS administration. Blood was taken by intracardiac puncture in test tubes with heparin. The blood samples were centrifuged at 1000 g and 4 °C for 15 min on a 2–16PK centrifuge (Sigma, Germany), and plasma was separated and stored at −80 °C until the assay. Thoracotomy was performed, the ligature was applied to the left bronchus and the trachea was cannulated with a 20 G needle. The right lung was washed twice with 0.7 mL of warm sterile saline. After combining aliquots, the bronchoalveolar lavage (BAL) was centrifuged at 800 g and 4 °C for 10 min. The supernatant was separated and stored at −80 °C until the assay. The residual cell pellet was resuspended in 50 μL of PBS for further study. The left lung was washed in saline and placed in 10% buffered formalin for morphological evaluation.
The total number of leukocytes in heparinized blood was determined after staining with methylene blue in Goryaev’s counting chamber at ×100 magnification. Smears of blood and BAL cell pellets were air-dried, fixed according to May–Grunwald for 3 min, and stained according to Romanowsky–Giemsa. After 30 min, the slides were washed, air-dried, and examined with immersion objective (×1000 total magnification). On each slide, a total of at least 100 cells were calculated.
The concentration of total protein in BAL supernatants was determined spectrophotometrically with the pyrogallol red method, and the protein in the blood plasma was determined with the biuret method using commercial kits (Vital, Saint Petersburg, Russia) and bovine serum albumin as the standard. The lung permeability index was calculated as the protein concentration in the BAL to plasma ratio.
Morphological markers of inflammation in lung tissue were assessed in a semi-quantitative way on paraffin sections stained with hematoxylin and eosin. The sections were examined under a light microscope (Zeiss, Germany) by a double-blind method. The score of inflammation was determined as follows: 0—the presence of single inflammatory cells; 1—weak inflammation, inflammatory cells infiltrate no more than 10% of the lung tissue, including interalveolar cell partitions; 2—moderate inflammation, inflammatory cells infiltrate no more than 50% of the structures of the lung, but the interstitial tissue is identified; 3—severe inflammation, inflammatory cells densely infiltrate more than 50% of the lung tissue and airways.

[4] = 24 h after LPS, dexamethasone 5 mg/kg, 9g 30 mg/kg i.p.

Cc1nc2nnnn2c(NC(C)C)c1[N+](=O)[O-] [Compound 9a, N-Isopropyl-5-methyl-6-nitrotetrazolo[1,5-a]pyrimidin-7-amine]
inhibition at 100 µM [1]: 47.7 ± 6.98% | Cell Viability vs. LPS Control, MTT Test ([2]; male, C57bl/6j, mouse, 24 h): 73.47 ± 12.07%

Cc1nc2nnnn2c(NC(C)(C)C)c1[N+](=O)[O-] [Compound 9b, N-Tert-Butyl-5-methyl-6-nitrotetrazolo[1,5-a]pyrimidin-7-amine]
inhibition at 100 µM [1]: 37 ± 3.25% | Cell Viability vs. LPS Control, MTT Test ([2]; male, C57bl/6j, mouse, 24 h): 104.9 ± 5.87%

Cc1nc2nnnn2c(NCCO)c1[N+](=O)[O-] [Compound 9c, 2-[(5-Methyl-6-nitrotetrazolo[1,5-a]pyrimidin-7-yl)-amino]ethanol]
inhibition at 100 µM [1]: 54.2 ± 11.5% | Cell Viability vs. LPS Control, MTT Test ([2]; male, C57bl/6j, mouse, 24 h): 109.0 ± 2.00%

Cc1nc2nnnn2c(NCCCO)c1[N+](=O)[O-] [Compound 9d, 3-[(5-Methyl-6-nitrotetrazolo[1,5-a]pyrimidin-7-yl)-amino]propanol]
inhibition at 100 µM [1]: 40.3 ± 5.14% | Cell Viability vs. LPS Control, MTT Test ([2]; male, C57bl/6j, mouse, 24 h): 116.6 ± 8.97%

Cc1nc2nnnn2c(NCC(O)CO)c1[N+](=O)[O-] (stereo not shown) [Compound 9e, 3-[(5-Methyl-6-nitrotetrazolo[1,5-a]pyrimidin-7-yl)-amino]propane-1,2-diol]
inhibition at 100 µM [1]: 21.5 ± 2.74% | Cell Viability vs. LPS Control, MTT Test ([2]; male, C57bl/6j, mouse, 24 h): 94.98 ± 12.48%

Cc1nc2nnnn2c(NCCc2ccc(Cl)cc2)c1[N+](=O)[O-] [Compound 9f, N-[2-(4-Chlorophenyl)ethyl]-5-methyl-6-nitrotetrazolo-[1,5-a]pyrimidin-7-amine]
inhibition at 100 µM [1]: 35.8 ± 4.45% | Cell Viability vs. LPS Control, MTT Test ([2]; male, C57bl/6j, mouse, 24 h): 102.67 ± 6.35%

C#CCSc1nc2ncc([N+](=O)[O-])c(NCCc3ccc(Cl)cc3)n2n1 [Compound 10f, N-(4-Chlorophenethyl)-6-nitro-2-(prop-2-yn-1-yl-sulfanyl)[1,2,4]triazolo[1,5-a]pyrimidin-7-amine]
inhibition at 100 µM [1]: 50.6 ± 1.27% | Cell Viability vs. LPS Control, MTT Test ([2]; male, C57bl/6j, mouse, 24 h): 38.37 ± 6.89 %

C#CCSc1nc2ncc([N+](=O)[O-])c(NCCc3ccc(O)cc3)n2n1 [Compound 10g, 4-{2-[(6-Nitro-2-(prop-2-yn-1-ylsulfanyl)[1,2,4]triazolo[1,5-a]pyrimidin-7-yl)amino]ethyl}phenol]
inhibition at 100 µM [1]: 28.5 ± 3.21% | Cell Viability vs. LPS Control, MTT Test ([2]; male, C57bl/6j, mouse, 24 h): 30.9 ± 7.7 %

Cc1[nH]c2nc(-c3ccc([N+](=O)[O-])o3)nn2c(=O)c1[N+](=O)[O-] [Compound 13, 2-(5-Nitrofur-2-yl)-5-methyl-6-nitro-1,2,4-triazolo[1,5-a]pyrimidin-7-one aminoguanidinium salt]
Inhibition of nitric oxide synthesis (in words) [1]: comparable to that of the tetrazolopyrimidine series | Inhibition of NO Synthesis vs. LPS Control [1]: 58.97 ± 7.07 % | Cell Viability vs. LPS Control, MTT Test ([2]; m ± SD): 96.97 ± 7.18%

Cc1[nH]c2nc(-c3ccc([N+](=O)[O-])o3)nn2c(=O)c1[N+](=O)[O-] [Compound 14, 2-(5-Nitrofur-2-yl)-5-methyl-6-nitro-1,2,4-triazolo[1,5-a]pyrimidin-7-one guanidinium salt]
Inhibition of nitric oxide synthesis (in words) [1]: did not demonstrate inhibition of nitric oxide synthesis | Inhibition of NO Synthesis vs. LPS Control [1]: 16.09 ± 5.78% | Cell Viability vs. LPS Control, MTT Test ([2]; m ± SD): 111.95 ± 8.67%

C[C@@H]1C[C@H]2[C@@H]3CCC4=CC(=O)C=C[C@]4(C)[C@@]3(F)[C@@H](O)C[C@]2(C)[C@@]1(O)C(=O)CO [Dexamethasone, reference compound]
Inhibition of NO Synthesis vs. LPS Control [1]: 90.91 ± 5.53 % | Suppression of phagocytosis ([3]; after 24-h of incubation, data not shown): significantly suppressed phagocytosis | Decrease of the mean number of phagocytosed yeast cells ([3]; after 72 h of incubation): 59% | Blood leukocyte subpopulations (C57BL/6J mice; 24 h after LPS): normalized leukocyte subpopulations to the values of intact animals | CD68+ cells in lung tissue, immunostaining (C57BL/6J mice; 24 h after LPS): rarely detected | LPS-induced lung lesions, histologic scoring (hemorrhage and neutrophil infiltration) (C57BL/6J mice; 24 h after LPS, H&E, semi-quantitative): significantly ameliorated | Blood plasma IL-6 level (C57BL/6J mice; [4]): normalized the blood plasma IL-6 level | Permeability of pulmonary vessels (lung permeability index) (C57BL/6J mice; [4]): prevent the increase in permeability of pulmonary vessels | Horizontal motor activity, open field test (C57BL/6J mice; 24 h after LPS, dexamethasone 5 mg/kg, 9g 30 mg/kg i.p. 1 h before LPS): significant improvement | Segmented neutrophils count in BAL (in words) (C57BL/6J mice; 24 h after LPS, monocytes in BAL increased): significantly decreased the segmented neutrophils count | Spleen mass and lymphocyte content (markers of immunodepression) (C57BL/6J mice; LPS-treated mice, dexamethasone 5 mg/kg, 9g 30 mg/kg i.p.): significantly reduced | LPS-induced hypothermia (C57BL/6J mice; body temperature determined rectally): attenuated LPS-induced hypothermia | Segmented neutrophils, share of BAL cells (C57BL/6J mice; bronchoalveolar lavage 24 h after LPS, dexamethasone 5 mg/kg, 9g 30 mg/kg i.p.): 22.5% | Number of center entries and time in the center, open field test (C57BL/6J mice; dexamethasone 5 mg/kg, 9g 30 mg/kg i.p.): restored the number of center entries and time in the center to intact levels | Cell Viability vs. LPS Control, MTT Test ([2]; male, C57bl/6j, mouse, 24 h): 104.21 ± 2.18%
